Experimental findings from patent US9079907B2, “Fused heterocyclic compound and use thereof” (TAKEDA PHARMACEUTICAL COMPANY LIMITED, priority 2006, dated 2015) are described below.

Experiment [1] concerns female spinal cord-transected rats with bilaterally transected hypogastric nerve and pudendal nerve. The experiment can be described thus: Reflex urethral closure response induced by increased intravesical pressure, with hypogastric and pudendal nerves bilaterally transected. Particulars: for urethral closure response (cmH2O) after drug administration: 10 min after administration; for urethral closure response (cmH2O) after drug administration / urethral closure response (cmH2O) before drug administration: intravesical pressure raised to 50 cmH2O, mean ± SEM, n = 5; for action on the urethral closure response induced by the increased intravesical pressure (in words): i.v., female spinal cord-transected rats with hypogastric and pudendal nerves bilaterally transected.
Protocol: Female SD rats (body weight 200-310 g) were anesthetized with urethane (Wako Pure Chemical Industries, Ltd.), and the spinal cord was transected at T8-9 level to eliminate the micturition reflex. During the operation, halothane (Takeda Pharmaceutical Company Limited) anesthesia was added when necessary. After abdominal section, bladder neck was ligated with a suture thread, and then the hypogastric nerve and pudendal nerve were bilaterally transected. A catheter (PE-90, Clay Adams) was placed in the bladder, and the other end of the bladder catheter was connected to a pressure transducer and a water reservoir (60 ml syringe) of saline via a three-way cock. A microchip transducer catheter (SPR-524, Millar Instruments Inc.) was inserted toward the bladder from the urethral opening, and adjusted using a scale on the catheter surface so that the transducer part is positioned in the urinary tract at 10.0-15.0 mm from the urethral opening.
The changes in the topical pressure within the urinary tract (hereinafter conveniently indicated as urethral internal pressure) as measured by the microchip transducer was transmitted to a computer via an amplifier (blood pressure amplification unit AP-641G; NIHON KOHDEN) and an analog-to-digital converter (MP-100; biopack; sampled at 500 Hz), and recorded on a hard disc. […] The reaction of the urinary tract induced by an increased intravesical pressure was measured 3 times, and the average of the last 2 measures was taken as the value before drug administration. The evaluation item was reflex urethral closure response, and the recorded values were subjected to smoothing process at 500 points to calculate an average urethral internal pressure per 1 sec, after which the value immediately before increase of the intravesical pressure was subtracted from the maximum value on increase of the intravesical pressure and taken as the urethral closure response. […] The drugs were all dissolved in N,N-dimethylformamide/polyethylene glycol 400 (1:1) and administered intravenously at a dose of 0.5 ml/kg.

In experiment [2] the target is serotonin 5-HT2C receptor (isoform type VSV, stably expressing CHO cell) (Homo sapiens, UniProt P28335, I156V/I160V/N158S). Description: cell-based. Particulars: for Emax: CHO, read-out: ratio to maximum response by 5-HT, read-out: ratio to maximum response by 5-HT (1 μM).
[3] abbreviates: baseline of the 1 mg/kg i.v. group.

Counter-ions that a name gives are not always drawn.

Chain of serotonin 5-HT2C receptor (isoform type VSV, stably expressing CHO cell) (P28335 33-458 I156V/N158S/I160V limits assumed): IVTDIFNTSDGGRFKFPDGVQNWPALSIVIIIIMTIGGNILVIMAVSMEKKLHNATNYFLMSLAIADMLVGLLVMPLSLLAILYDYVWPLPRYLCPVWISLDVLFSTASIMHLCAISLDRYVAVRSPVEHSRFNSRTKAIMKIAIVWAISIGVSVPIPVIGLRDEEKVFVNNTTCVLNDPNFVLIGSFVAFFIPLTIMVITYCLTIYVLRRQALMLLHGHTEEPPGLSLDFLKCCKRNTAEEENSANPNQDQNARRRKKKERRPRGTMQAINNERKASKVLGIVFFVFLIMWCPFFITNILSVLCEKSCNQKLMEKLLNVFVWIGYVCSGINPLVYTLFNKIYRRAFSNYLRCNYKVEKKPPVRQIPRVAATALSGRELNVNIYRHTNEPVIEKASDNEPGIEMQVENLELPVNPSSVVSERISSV

For `C[C@H]1CNCCc2ccc(Cl)cc21.Cl` [APD-356], in experiment [1] (1 mg/kg i.v.), the “urethral closure response (cmH2O) after drug administration” value was 8.6 ± 2.7 cmH2O. Besides, the “urethral closure response (cmH2O) before drug administration” value in experiment [1] (setting [3]) came to 5.3 ± 1.7 cmH2O. In addition, the “action on the urethral closure response induced by the increased intravesical pressure (in words)” value in experiment [1] was “enhanced the urethral closure response”.

For the molecule `CC(C)(C)OC(=O)N1CCN(c2ccc3c(n2)OCCNC3)CC1` [Example 30, tert-butyl 4-(2,3,4,5-tetrahydropyrido[3,2-f][1,4]oxazepin-8-yl)piperazine-1-carboxylate], the Emax in experiment [2] turned out to be 99.4%.

In the case of `c1cc2c(nc1N1CCCCC1)OCCNC2` [Example 40, 8-piperidin-1-yl-2,3,4,5-tetrahydropyrido[3,2-f][1,4]oxazepine], the Emax in experiment [2] was 80.8%.

Regarding `c1cc2c(nc1N1CCOCC1)OCCNC2` [Example 41, 8-morpholin-4-yl-2,3,4,5-tetrahydropyrido[3,2-f][1,4]oxazepine], in experiment [2], the “ratio to maximum response by 5-HT (1 μM)” value worked out at 83.0%. Further, in experiment [1] (1 mg/kg i.v.), the “urethral closure response (cmH2O) after drug administration” value is 7.5 ± 1.6 cmH2O. In experiment [1] (setting [3]), the “urethral closure response (cmH2O) before drug administration” value came to 4.6 ± 0.8 cmH2O. Also, the “action on the urethral closure response induced by the increased intravesical pressure (in words)” value in experiment [1] is recorded as “enhanced the urethral closure response”.

Regarding `c1cc2c(nc1N1CCCC1)OCCNC2` [Example 43, 8-pyrrolidin-1-yl-2,3,4,5-tetrahydropyrido[3,2-f][1,4]oxazepine bis(trifluoroacetate)], the Emax in experiment [2] worked out at 97%.

Take `CCN(CC)c1ccc2c(n1)OCCNC2` [Example 44, N,N-diethyl-2,3,4,5-tetrahydropyrido[3,2-f][1,4]oxazepin-8-amine bis(trifluoroacetate)]: the Emax in experiment [2] was 95.1%.

In the case of `c1cc2c(nc1N1CCCCCC1)OCCNC2` [Example 46, 8-azepan-1-yl-2,3,4,5-tetrahydropyrido[3,2-f][1,4]oxazepine bis(trifluoroacetate)], in experiment [2], the Emax was 100%.

As for `CC1CCCCN1c1ccc2c(n1)OCCNC2` (centres unmarked) [Example 49, 8-(2-methylpiperidin-1-yl)-2,3,4,5-tetrahydropyrido[3,2-f][1,4]oxazepine bis(trifluoroacetate)], the Emax in experiment [2] was 89.5%.

For the molecule `c1ccc(CCN2CCN(c3ccc4c(n3)OCCNC4)CC2)cc1` [Example 58, 8-[4-(2-phenylethyl)piperazin-1-yl]-2,3,4,5-tetrahydropyrido[3,2-f][1,4]oxazepine tris(trifluoroacetate)], in experiment [2], the Emax was determined as 87.1%.

Turning to `c1ccc(CCCCN2CCN(c3ccc4c(n3)OCCNC4)CC2)cc1` [Example 67, 8-[4-(4-phenylbutyl)piperazin-1-yl]-2,3,4,5-tetrahydropyrido[3,2-f][1,4]oxazepine tris(trifluoroacetate)], the Emax in experiment [2] was 124%.

With `Clc1ccc(-c2ccc3c(n2)OCCNC3)cc1` [Example 79, 8-(4-chlorophenyl)-2,3,4,5-tetrahydropyrido[3,2-f][1,4]oxazepine], the Emax in experiment [2] amounted to 91.1%.

Take `Fc1ccc(-c2ccc3c(n2)OCCNC3)cc1` [Example 81, 8-(4-fluorophenyl)-2,3,4,5-tetrahydropyrido[3,2-f][1,4]oxazepine bis(trifluoroacetate)]: in experiment [2], the Emax amounted to 92.1%.

For `CSc1ccc(-c2ccc3c(n2)OCCNC3)cc1` [Example 96, 8-[4-(methylthio)phenyl]-2,3,4,5-tetrahydropyrido[3,2-f][1,4]oxazepine bis(trifluoroacetate)], in experiment [2], the Emax amounted to 90.3%.

For the molecule `COC(=O)c1ccc(-c2ccc3c(n2)OCCNC3)cc1` [Example 102, methyl 4-(2,3,4,5-tetrahydropyrido[3,2-f][1,4]oxazepin-8-yl)benzoate bis(trifluoroacetate)], the Emax in experiment [2] was determined as 91.3%.

As for `FC(F)(F)Oc1ccc(-c2ccc3c(n2)OCCNC3)cc1` [Example 104, 8-[4-(trifluoromethoxy)phenyl]-2,3,4,5-tetrahydropyrido[3,2-f][1,4]oxazepine bis(trifluoroacetate)], the Emax in experiment [2] is 94.6%.

Take `c1cc(-c2ccc3c(n2)OCCNC3)co1` [Example 112, 8-(3-furyl)-2,3,4,5-tetrahydropyrido[3,2-f][1,4]oxazepine bis(trifluoroacetate)]: in experiment [2], the Emax is 93%.

On to `CC(C)(C)OC(=O)N1CCN(c2nc3c(cc2F)CNCCO3)CC1` [Example 122, tert-butyl 4-(7-fluoro-2,3,4,5-tetrahydropyrido[3,2-f][1,4]oxazepin-8-yl)piperazine-1-carboxylate], for which, in experiment [2], the Emax came out at 110%.

As for `CC1CNCc2ccc(N3CCN(C(=O)OC(C)(C)C)CC3)nc2O1` (centres unmarked) [Example 126, tert-butyl 4-(2-methyl-2,3,4,5-tetrahydropyrido[3,2-f][1,4]oxazepin-8-yl)piperazine-1-carboxylate], in experiment [2], the Emax was 109%.

Consider `CC1CNCc2ccc(N3CCOCC3)nc2O1` (centres unmarked) [Example 128, 2-methyl-8-morpholin-4-yl-2,3,4,5-tetrahydropyrido[3,2-f][1,4]oxazepine], for which, in experiment [2], the Emax amounted to 107%.

Regarding `CC1CNCc2ccc(N3CCCCC3)nc2O1` (centres unmarked) [Example 129, 2-methyl-8-piperidin-1-yl-2,3,4,5-tetrahydropyrido[3,2-f][1,4]oxazepine], the Emax in experiment [2] was determined as 111%.

For the molecule `C[C@@H]1CNCc2ccc(N3CCOCC3)nc2O1` [Example 130, (+)-2-methyl-8-morpholin-4-yl-2,3,4,5-tetrahydropyrido[3,2-f][1,4]oxazepine], in experiment [2], the Emax came to 105%.

On to `C[C@H]1CNCc2ccc(N3CCOCC3)nc2O1` [Example 131, (−)-2-methyl-8-morpholin-4-yl-2,3,4,5-tetrahydropyrido[3,2-f][1,4]oxazepine], for which the Emax in experiment [2] came out at 94.2%.

Consider `c1cc2c(nc1N1CCOCC1)OCCNC2` [Example 147, 8-morpholin-4-yl-2,3,4,5-tetrahydropyrido[3,2-f][1,4]oxazepine monohydrochloride], for which the Emax in experiment [2] was 93.9%.

On to `c1cc2c(nc1N1CCOCC1)OCCNC2` [Example 148, 8-morpholin-4-yl-2,3,4,5-tetrahydropyrido[3,2-f][1,4]oxazepine monohydrobromide], for which the “ratio to maximum response by 5-HT (1 μM)” value in experiment [2] (monohydrobromide) came out at 93.5%.

Turning to `CC1CCC(C)N1c1ccc2c(n1)OCCNC2` (centres unmarked) [Example 155, 8-(2,5-dimethylpyrrolidin-1-yl)-2,3,4,5-tetrahydropyrido[3,2-f][1,4]oxazepine], the Emax in experiment [2] was determined as 85.4%.

On to `Br.CC1CCC(C)N1c1ccc2c(n1)OCCNC2` (centres unmarked) [Example 156, 8-(2,5-dimethylpyrrolidin-1-yl)-2,3,4,5-tetrahydropyrido[3,2-f][1,4]oxazepine monohydrobromide], for which, in experiment [2], the “ratio to maximum response by 5-HT (1 μM)” value turned out to be 93.4%.

With `CCC(C)N(C)c1ccc2c(n1)OCCNC2` (centres unmarked) [Example 171, N-(sec-butyl)-N-methyl-2,3,4,5-tetrahydropyrido[3,2-f][1,4]oxazepin-8-amine monohydrobromide], the Emax in experiment [2] is 99.6%.

In the case of `CCC(C)N(C)c1ccc2c(n1)OCCNC2` (centres unmarked) [Example 172, N-(sec-butyl)-N-methyl-2,3,4,5-tetrahydropyrido[3,2-f][1,4]oxazepin-8-amine monohydrochloride], in experiment [2] (monohydrochloride), the “ratio to maximum response by 5-HT (1 μM)” value was determined as 95.3%.

Turning to `CCC(C)N(C)c1ccc2c(n1)OCCNC2` (centres unmarked) [Example 173, N-(sec-butyl)-N-methyl-2,3,4,5-tetrahydropyrido[3,2-f][1,4]oxazepin-8-amine dihydrochloride], in experiment [2] (dihydrochloride), the “ratio to maximum response by 5-HT (1 μM)” value amounted to 95.1%.

As to `CC(C)N(C)c1ccc2c(n1)OCCNC2` [Example 177, N-isopropyl-N-methyl-2,3,4,5-tetrahydropyrido[3,2-f][1,4]oxazepin-8-amine], the Emax in experiment [2] was 91.5%.

Turning to `CC(C)N(C)c1ccc2c(n1)OCCNC2` [Example 178, N-isopropyl-N-methyl-2,3,4,5-tetrahydropyrido[3,2-f][1,4]oxazepin-8-amine monohydrobromide], the “ratio to maximum response by 5-HT (1 μM)” value in experiment [2] (monohydrobromide) is reported as 94.6%.

Take `CC(C)c1ccc2c(n1)OCCNC2` [Example 205, 8-isopropyl-2,3,4,5-tetrahydropyrido[3,2-f][1,4]oxazepine dihydrochloride]: in experiment [2], the Emax worked out at 93.5%.

Regarding `c1cc2c(nc1C1CC1)OCCNC2` [Example 210, 8-cyclopropyl-2,3,4,5-tetrahydropyrido[3,2-f][1,4]oxazepine dihydrochloride], the Emax in experiment [2] stood at 108%.

On to `c1cc2c(nc1C1CCC1)OCCNC2` [Example 211, 8-cyclobutyl-2,3,4,5-tetrahydropyrido[3,2-f][1,4]oxazepine dihydrochloride], for which the Emax in experiment [2] is 98%.

Regarding `c1cc2c(nc1C1CCCC1)OCCNC2` [Example 212, 8-cyclopentyl-2,3,4,5-tetrahydropyrido[3,2-f][1,4]oxazepine dihydrochloride], the Emax in experiment [2] is 91.9%.

With `c1cc2c(nc1C1CCCC1)OCCNC2` [Example 213, 8-cyclopentyl-2,3,4,5-tetrahydropyrido[3,2-f][1,4]oxazepine], the “ratio to maximum response by 5-HT (1 μM)” value in experiment [2] was found to be 96.6%.

For the molecule `c1cc2c3c(c1)[C@H]1CCC[C@H]1N3CCNC2` [WAY-163909], in experiment [1] (3 mg/kg i.v.), the “urethral closure response (cmH2O) after drug administration” value was found to be 10.2 ± 1.6 cmH2O. The “urethral closure response (cmH2O) before drug administration” value in experiment [1] (baseline of the 3 mg/kg i.v. group) is 4.4 ± 0.8 cmH2O. In addition, in experiment [1], the “action on the urethral closure response induced by the increased intravesical pressure (in words)” value is reported as “enhanced the urethral closure response”.
